Results published in patent US20210221862A1, “APPLICATION OF PEDF-DERIVED SHORT PEPTIDES IN THE TREATMENT OF OSTEOARTHRITIS” (BRIM Biotechnology, Inc., priority 2018, published 2021).

Experiments:
[1] = system: rat model of MIA-induced OA; experiment: MIA-induced hind paw weight-bearing shift (incapacitance tester), rat OA model; type: in vivo; settings: for MIA-induced weight shift (hind paw weight-bearing): vehicle/HA 75.9±4.7%
Protocol: (§1) Adult 10-wk-old male Sprague-Dawley rats (initial body wt=312±11 g) were anesthetized by an intraperitoneal injection of Xylazine (10 mg/kg). After that, their right knees were each treated with a single intraarticular injection of 1 mg of MIA in 25 μl of sterile saline. The solution was injected through the patellar ligament using a 27 G needle with the leg flexed at a 90° angle at the knee. Seven days after MIA injection, the […] were randomly assigned to different experimental groups (n 3, each group). For treatments of the rat model of MIA-induced OA, PDSP peptide was dissolved in 25 μl of 1% HA, and the peptide solvent DMSO was used as a vehicle/HA control.
Changes in hind paw weight distributions between the right (osteoarthritic) and left (contralateral control) limbs were used as an index of joint discomfort in the osteoarthritic knee. An incapacitance tester was employed for determination of hind paw weight distributions, as previously described (Bove et al., Weight bearing as a measure of disease progression and efficacy of anti-inflammatory compounds in a model of monosodium iodoacetate-induced osteoarthritis. Osteoarth Cart., 2003; 11:821-830). Rats were placed in an angled plexiglass chamber positioned so that each hind paw rested on a separate force plate. The force exerted by each hind limb (measured in grams) is averaged over a 5-s period. Each data point is the mean of three, 5-s readings. The change in hind paw weight distribution was calculated by determining the difference in the amounts of weights (g) exerted on the tester between the left and right limbs. Results are presented as either the difference in weight bearing between the left (contralateral control) limb and right (osteoarthritic) limbs or as the percent difference between the baseline reading and the post-treatment reading, as calculated using the following equation:
(1−(mean Δweight of treated group/mean Δ weight of vehicle group))×(100)
To investigate whether PDSP (PEDF short peptide) has antinociceptive effects to ameliorate the joint discomfort, 10-wk-old male Sprague-Dawley rats (n=15) were subjected to intraarticular injection of 1 mg of MIA (dissolved in 25 μl of sterile saline) into right joint to induce a maximum degree of weight shift (from right to left leg) and then used to investigate the pharmacologic response of the 29-mer PDSP (SEQ ID NO:1). […]
In the animal study, the 29-mer PDSP variants were formulated into 1% HA to final a concentration of 0.2 mM and then applied by way of a single intraarticular injection each on day 1 and day 8 post-MIA injection. After 29-mer variant treatments for 14 days, the antinociceptive effects of the 29-mer variants (n=3 per group) on MIA-induced hind paw weight-bearing shifts were evaluated with an incapacitance tester.

rat MSCs = experiment: Chondrogenic differentiation of MSCs, GAG by Alcian blue staining; type: cell-based; settings: 10 μM peptide in medium with dexamethasone and TGF-β3, 21 days; DMSO control 0.15±0.024
Protocol: Adult 8-wk-old male Sprague-Dawley rats were anesthetized with an intraperitoneal injection of Xylazine (10 mg/kg). After that, their femurs were aseptically harvested, washed in a mixture of PBS and antibiotics for 5 minutes, and then they were dissected off of all soft tissue, transected at their epiphysis, and their marrow cavity rinsed repeatedly with a mixture of heparin (AGGLUTEX INJ 5000 U/ML 5 ML; working conc. 100 U/ml) and DMEM. The harvested cells were collected, dispersed by pipetting, and centrifuged at 1000×g for 5 minutes at RT. Cell pellets were resuspended with DMEM, and then the cell suspension was transferred to a 15-ml centrifuge tube containing 5 ml of Percoll (1.073 g/ml). […]
For Alcian blue staining, cultures were rinsed twice with PBS, fixed in 4% (w/v) paraformaldehyde for 15 min, and then incubated in 1% (w/v) Alcian blue 8-GX (Sigma) in 0.1 N HCl (pH 1.0) overnight as previously described (Ji Y. H. et al., Quantitative proteomics analysis of chondrogenic differentiation of C3H10T1/2 mesenchymal stem cells by iTRAQ labeling coupled with on-line two-dimensional LC/MS/MS, Mol. Cell. Proteom., 2010, 9(3): 550-564.). For semi-quantitative analysis, Alcian blue-stained cultures were extracted with 6 M guanidine HCl for 2 h at room temperature. The absorption of the extracted dye was measured at 650 nm in a microplate reader (Bio-Rad). […]

[2] = system: chondrogenic cells in damaged articular cartilage; experiment: In vivo DNA synthesis: BrdU / Sox9 staining of damaged articular cartilage, MIA-induced OA; parameters: species or system rat
Protocol: as §1
For detection of cell proliferation, BrdU was reconstituted in DMSO as stock (80 mM). […] DNA synthesis was assessed by BrdU labeling, as detected with anti-BrdU antibodies.
To detect DNA synthesis in vivo, paraffin-embedded joint specimens were deparaffinized in xylene and rehydrated in a graded series of ethanol and then exposed to 1 N HCl at RT for 1 h for subsequent immunohistochemistry. […] Images were captured using a Zeiss epifluorescence microscope with a CCD camera and measured from 20 randomly-selected areas in each sample, and blind quantification was performed in triplicate by manually counting within each section. […]

[3] = system: MIA-damaged articular cartilage; experiment: Histological examination (H&E) of MIA-damaged articular cartilage; type: in vivo, rat; settings: 29-mer/HA from day 8 post-MIA for 2 weeks
Protocol: as §1
The knee joints were dissected, and the surrounding soft tissue was removed. Specimens were fixed in a 4% paraformaldehyde (PFA) solution and then were decalcified with Shandon TBD-2 decalcifier (Thermo Scientific, Logan, Utah). The joints were then sectioned mid-sagittally and embedded in paraffin blocks. Sections (5 μm in thickness) were longitudinally cut and stained with hematoxylin and eosin (H&E) or used for immunohistochemical examination. 20 sections per knee were carefully prepared so as to include the most severely degenerated area.
It has been established that rat knee joints injected with MIA can result in extensive chondrocyte degeneration/necrosis at day 7 post-MIA treatment in a rapid and reproducible manner. […]

Sequence: SLGAEQRTESIIHRALYYDLISSPDIHGT (in 1% hyaluronic acid; listed as Homo sapiens) [29-mer, PEDF-derived short peptide, human PEDF residues 93-121]
- MIA-induced weight shift (hind paw weight-bearing) ([1]; group II: 0.2 mM 29-mer in 1% HA, intraarticular on day 1, 4, 8, 12 (twice per week), 14 days): 63.3±12.5%
- MIA-induced weight shift (hind paw weight-bearing) ([1]; group III: 29-mer alone (bolus, without HA), intraarticular day 1, 4, 8, 12): 77.2±1.2%
- MIA-induced weight shift (hind paw weight-bearing) ([1]; group IV: 29-mer/HA, intraarticular once on day 1 and day 8 (once per week), 14 days): 58.1±4.6%
- MIA-induced hind paw weight-bearing shift ([1]; variant study (FIG. 4): 0.2 mM peptide in 1% HA, intraarticular day 1 and day 8, after 14 days, vehicle/HA 47.1±3.7%): 22.0±0.66%
- Alcian blue-positive material (GAG) at OD 650 nm (rat MSCs): 0.34±0.013
- Sox9 immunostaining of BrdU-positive cells ([2]; 0.2 mM 29-mer/HA, dual immunostaining, FIG. 5A): BrdU-positive cells were also Sox9 positive
- BrdU-positive cells per field of cartilage region ([2]; 0.2 mM peptide in 1% HA, 14 days treatment, vehicle/HA 7±3): 346±57
- Chondrocytes in cartilage, H&E histology ([3]; vehicle/HA: chondrocytes lost from superficial zone): large numbers of newly generated chondrocytes throughout the cartilage
- Cartilage integrity, H&E histology ([3]; vehicle/HA: loss of cartilage integrity): good surface continuity
